{
  "source": "patent US11311475B2",
  "about": "“Skin care compositions containing peptide compound and aphanothece sacrum exopolysaccharide extract” (The Procter & Gamble Company, priority 2019, dated 2022)",
  "assay": "Franz diffusion cell skin penetration assay",
  "type": "in vitro ADME, human",
  "conditions": "for pal-KT Skin Penetration: Surface Residual / pal-KT Skin Penetration: Dermis / pal-KT Skin Penetration: Epidermis / pal-KT Skin Penetration: Total Penetration / pal-KT Skin Penetration: Receptor: pal-KT 5 ppm; for pal-KT Skin Penetration: Surface Residual: 14C-spiked, 24 h after topical dose on human skin; for pal-KT Skin Penetration: Total Penetration: epidermis+dermis+receptor; for pal-KT Skin Penetration: Receptor: receptor solution (transdermal)",
  "description": "The method is described. […] (40 ppm) is assessed using the Franz diffusion cell assay (4, T. J. Franz, J. Invest. Dermatol. 64: 190-195, 1975; T. J. Franz, et al., Skin Pharmacol. Physiol. 22: 276-286, 2009). The peptides are formulated in a skin care silicone-in-water (SWF) formulation with or without 10 wt % SACRAN. The formulations are spiked with ^14C-pal-KT or ^3H-PKEK. Twenty-four hours after topically dosed on human skin, residual product is removed from the skin surface, the epidermal and dermal layers were separated, and receptor solutions (transdermal) are collected.",
  "key": {"[1]": {"conditions": "SWF + 10 wt % SACRAN versus SWF, 24 h, human skin"}, "[2]": {"conditions": "SWF formulation without SACRAN (control), 24 h"}},
  "data": [
    {"smiles": "CCCCCCCCCCCCCCCC(=O)N[C@@H](CCCCN)C(=O)N[C@H](C(=O)O)[C@@H](C)O", "note": "[pal-KT, palmitoyl-lysine-threonine]", "values": [
      {"measurement": "amount recovered from the surface of the skin with SACRAN versus without (in words)", "setting": "[1]", "result": "statistically significant lower amount"},
      {"measurement": "effect of addition of SACRAN on skin penetration (in words)", "setting": "[1]", "result": "increased"},
      {"measurement": "pal-KT Skin Penetration: Surface Residual", "setting": "SWF + 10 wt % SACRAN", "result": "173.2 ± 18.1", "unit": "ng/cm^2"},
      {"measurement": "pal-KT Skin Penetration: Dermis", "setting": "SWF + 10 wt % SACRAN, 24 h", "result": "14.8 ± 1.65", "unit": "ng/cm^2"},
      {"measurement": "pal-KT Skin Penetration: Epidermis", "setting": "SWF + 10 wt % SACRAN, 24 h", "result": "128.3 ± 17.1", "unit": "ng/cm^2"},
      {"measurement": "pal-KT Skin Penetration: Total Penetration", "setting": "SWF + 10 wt % SACRAN, 24 h", "result": "143.3 ± 18.1", "unit": "ng/cm^2"},
      {"measurement": "pal-KT Skin Penetration: Receptor", "setting": "SWF + 10 wt % SACRAN, 24 h", "result": "0.09 ± 0.07", "unit": "ng/cm^2"},
      {"measurement": "increase in skin penetration by addition of SACRAN to SWF", "setting": "SWF + SACRAN versus SWF, single topical application", "result": 60, "unit": "%"},
      {"measurement": "pal-KT Skin Penetration: Surface Residual", "setting": "SWF formulation without SACRAN (control)", "result": "228.5 ± 10.2", "unit": "ng/cm^2"},
      {"measurement": "pal-KT Skin Penetration: Dermis", "setting": "[2]", "result": "14.3 ± 1.4", "unit": "ng/cm^2"},
      {"measurement": "pal-KT Skin Penetration: Epidermis", "setting": "[2]", "result": "72.5 ± 9.5", "unit": "ng/cm^2"},
      {"measurement": "pal-KT Skin Penetration: Total Penetration", "setting": "[2]", "result": "88.0 ± 10.2", "unit": "ng/cm^2"},
      {"measurement": "pal-KT Skin Penetration: Receptor", "setting": "[2]", "result": "0.14 ± 0.14", "unit": "ng/cm^2"}
    ]}
  ]
}
